Source: patent US20260151375A1, “CDK2 INHIBITORS AND METHODS OF USING THE SAME” (Cedilla Therapeutics, Inc., priority 2022, published 2026)
Where two headings read alike, the source gives them in different places.

How the values were obtained:
[1] = target: T1, CDK2/Cyclin E1 (Homo sapiens, UniProt P24941); test: Caliper Assay (LabChip EZ Reader mobility shift assay), inhibition of CDK2/Cyclin E1 activity; type: biochemical; details: 2.5 nM CDK2/Cyclin E1(14-475), 100 μM ATP, 30 min preincubation; read-out: Caliper Assay (CDK2/CCNE1): IC50
T1 construct: purchased 14-475
Outline: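 Compounds were preincubated 30 min with CDK2/Cyclin E1(14-475), then run for 100 min with 2.5 nM enzyme, 100 μM ATP and 1.5 μM 5-FAM-QSPKKG peptide in HEPES pH 7.5 (final). Reactions were EDTA-stopped and substrate-to-product conversion read by mobility shift. IC50 came from a four-parameter fit.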

[2] = tested on: Kuramochi cells; test: IncuCyte Kuramochi Assay (cell proliferation); type: cell-based; details: Kuramochi cells labeled with mApple-H2B, cell count, read-out: IncuCyte - Kuramochi RB-WT: IC50
Outline: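 GI50 came from dose-response fits of cell-count fold change between 0 and 72 h, normalized to DMSO controls. Counts were fluorescent nuclei from live-cell images over a 10-point, ½ log series starting at 20 μM.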

Row | SMILES | IC50 [1] [µM] | IC50 ([2]; 72 h) [µM] | IC50 ([2]; 72 hours) [µM]
1 | O=C(c1cncs1)N1CC(c2nc3ccc(Oc4ccccc4)cc3o2)C2(C1)CN(C(=O)[C@H]1CC1(F)F)C2 (stereo partly drawn) [I-144, (2-((R)-2,2-difluorocyclopropane-1-carbonyl)-8-(6-phenoxybenzo[d]oxazol-2-yl)-2,6-diazaspiro[3.4]octan-6-yl)(thiazol-5-yl)methanone] | 1 to 10 | > 10 | –
2 | CC1(C)C[C@@H]1C(=O)N1CC2(CN(C(=O)c3cnn(Cc4ccccc4)c3)CC2c2nnc(CC3CCC(F)(F)CC3)o2)C1 (stereo partly shown) [I-20] | 1 to 10 | > 10 | –
3 | CC(c1nc(C2CN(C(=O)c3cncs3)CC23CN(C(=O)[C@H]2CC2(C)C)C3)no1)n1cc(C2CCCC2)cn1 (stereo partly shown) [I-64] | 0.01 to 0.1 | > 10 | –
4 | CC1(C)C[C@@H]1C(=O)N1CC2(CN(C(=O)c3cncs3)CC2c2nnc(C(F)(F)c3ccc(C#N)cc3)o2)C1 (stereo partly shown) [I-72] | 1 to 10 | > 10 | –
5 | CC1(C)C[C@@H]1C(=O)N1CC2(CN(C(=O)c3cnn(Cc4ccccc4)c3)CC2c2nnc(Cc3cncnc3)o2)C1 (stereo partly drawn) [I-14, (1-benzyl-1H-pyrazol-4-yl)(2-((S)-2,2-dimethylcyclopropane-1-carbonyl)-8-(5-(pyrimidin-5-ylmethyl)-1,3,4-oxadiazol-2-yl)-2,6-diazaspiro[3.4]octan-6-yl)methanone] | 1 to 10 | > 10 | –
6 | O=C(c1cncs1)N1CC(c2nnc(Cc3ccc(Cl)c(Cl)c3)o2)C2(C1)CN(c1nccc(C(F)(F)F)n1)C2 (stereo not shown) [I-99] | > 10 | > 10 | –
7 | C[C@@H](NC(=O)c1coc(C2CN(C(=O)c3cnn(Cc4ccccc4)c3)CC23CN(C(=O)[C@H]2CC2(C)C)C3)n1)C1CCCCC1 (stereo partly shown) [I-90] | 0.01 to 0.1 | 5 to 10 | –
8 | CC1(C)C[C@@H]1C(=O)N1CC2(CN(C(=O)c3cnn(Cc4ccccc4)c3)CC2c2noc(COC3CCCC3)n2)C1 (stereo partly shown) [I-84] | 1 to 10 | > 10 | –
9 | CC(C)=CC(=O)N1CC2(C1)CN(C(=O)c1cncs1)CC2c1nnc(C(F)(F)c2ccc(Cl)c(Cl)c2)o1 (stereo not shown) [I-190] | > 10 | > 10 | –
10 | CC1(C)C[C@@H]1C(=O)N1CC2(CN(C(=O)c3cncs3)CC2c2nnc(C(F)(F)c3ccc(F)c(F)c3)o2)C1 (stereo partly shown) [I-76] | 0.1 to 1 | > 10 | –
11 | CC1(C)C[C@@H]1C(=O)N1CC2(CN(C(=O)c3cncs3)CC2c2nnc(Cc3ccc4c(c3)OCCO4)o2)C1 (stereo partly shown) [I-27] | 0.1 to 1 | > 10 | –
12 | CC(C)(CO)C(=O)N1CC2(CN(C(=O)c3cncs3)CC2c2nnc(C(F)(F)c3ccc(Cl)c(Cl)c3)o2)C1 (stereo not shown) [I-189] | 1 to 10 | > 10 | –
13 | CC1(C)C[C@@H]1C(=O)N1CC2(CN(C(=O)c3cncs3)CC2c2cn(Cc3ccc(C4CC4)cc3)nn2)C1 (stereo partly shown) [I-193] | 1 to 10 | > 10 | –
14 | Cc1cc(C)n(Cc2nnc(C3CN(C(=O)c4cnn(Cc5ccccc5)c4)CC34CN(C(=O)[C@H]3CC3(C)C)C4)o2)n1 (stereo partly shown) [I-13] | 1 to 10 | > 10 | –
15 | CC(C)(C#N)C(=O)N1CC2(CN(C(=O)c3cn[nH]c3)CC2c2nnc(C(F)(F)c3ccc(Cl)c(Cl)c3)o2)C1 (stereo not shown) [I-177] | > 10 | > 10 | –
16 | CC(c1nc(C2CN(C(=O)c3cncs3)CC23CN(C(=O)[C@H]2CC2(C)C)C3)no1)n1ncc2ccccc21 (stereo partly shown) [I-74] | 1 to 10 | > 10 | –
17 | O=C(c1cnccn1)N1CC(c2nnc(C(F)(F)c3ccc(Cl)c(Cl)c3)o2)C2(C1)CN(C(=O)[C@H]1CC1(F)F)C2 (stereo partly drawn) [I-176, (8-(5-((3,4-dichlorophenyl)difluoromethyl)-1,3,4-oxadiazol-2-yl)-2-((R)-2,2-difluorocyclopropane-1-carbonyl)-2,6-diazaspiro[3.4]octan-6-yl)(pyrazin-2-yl)methanone] | 1 to 10 | > 10 | –
18 | CC1(C)C[C@@H]1C(=O)N1CC2(CN(C(=O)c3cncs3)CC2c2nnc(C3(c4ccc(Cl)c(Cl)c4)CC(O)C3)o2)C1 (stereo partly shown) [I-61] | 0.01 to 0.1 | > 10 | –
19 | CC(c1cc[nH]n1)c1nc(C2CN(C(=O)c3cncs3)CC23CN(C(=O)[C@H]2CC2(C)C)C3)no1 (stereo partly drawn) [I-77, (8-(5-(1-(1H-pyrazol-3-yl)ethyl)-1,2,4-oxadiazol-3-yl)-2-((S)-2,2-dimethylcyclopropane-1-carbonyl)-2,6-diazaspiro[3.4]octan-6-yl)(thiazol-5-yl)methanone] | 1 to 10 | > 10 | –

Row | SMILES | IC50 [1] [µM] | IC50 ([2]; 72 h) [µM] | IC50 ([2]; 72 hours) [µM]
20 | COc1ccc(C(F)(F)c2nnc(C3CN(C(=O)c4cncs4)CC34CN(C(=O)[C@H]3CC3(C)C)C4)o2)cc1 (stereo partly shown) [I-68] | 0.1 to 1 | > 10 | –
21 | CC1(C)C[C@@H]1C(=O)N1CC2(CN(C(=O)c3cncs3)CC2(F)c2nnc(C(F)(F)c3ccc(Cl)c(Cl)c3)o2)C1 (single isomer, unassigned) [I-38 3rd] | > 10 | – | > 10
22 | CC1(C)C[C@@H]1C(=O)N1CC2(CN(C(=O)c3cccnn3)CC2c2nnc(C(F)(F)c3ccc(Cl)c(Cl)c3)o2)C1 (stereo partly shown) [I-53] | > 10 | > 10 | –
23 | CC1(C)C[C@@H]1C(=O)N1CC2(CN(C(=O)c3ccnnc3)CC2c2nnc(C(F)(F)c3ccc(Cl)c(Cl)c3)o2)C1 (stereo partly drawn) [I-43, (8-(5-((3,4-dichlorophenyl)difluoromethyl)-1,3,4-oxadiazol-2-yl)-2-((S)-2,2-dimethylcyclopropane-1-carbonyl)-2,6-diazaspiro[3.4]octan-6-yl)(pyridazin-4-yl)methanone] | 1 to 10 | > 10 | –
24 | CC(c1nc(C2CN(C(=O)c3cncs3)CC23CN(C(=O)[C@H]2CC2(C)C)C3)no1)n1ccc(C2CCCC2)n1 (single isomer, unassigned) [I-36 4th] | 0.01 to 0.1 | – | > 10
25 | CC1(C)C[C@@H]1C(=O)N1CC2(CN(C(=O)c3cncs3)CC2c2nnc(C(F)(F)c3cccc4ccccc34)o2)C1 (stereo partly shown) [I-73] | 0.1 to 1 | > 10 | –
26 | CC1(C)C[C@@H]1C(=O)N1CC2(CN(C(=O)c3cncs3)CC2c2cn(Cc3ccc(Cl)c(Cl)c3)nn2)C1 (stereo partly drawn) [I-51, (8-(1-(3,4-dichlorobenzyl)-1H-1,2,3-triazol-4-yl)-2-((S)-2,2-dimethylcyclopropane-1-carbonyl)-2,6-diazaspiro[3.4]octan-6-yl)(thiazol-5-yl)methanone] | > 10 | > 10 | –
27 | CC1(C)C[C@@H]1C(=O)N1CC2(CN(C(=O)c3cncs3)CC2c2nnc(C(F)(F)c3ccc(Cl)cc3)o2)C1 (stereo partly shown) [I-65] | 1 to 10 | > 10 | –
28 | CC(C)(c1coc(C2CCCC2)n1)c1nc(C2CN(C(=O)c3cncs3)CC23CN(C(=O)[C@H]2CC2(C)C)C3)no1 (stereo partly shown) [I-62] | 0.01 to 0.1 | 5 to 10 | –
29 | CC1(C)C[C@@H]1C(=O)N1CC2(CN(C(=O)c3cnccn3)CC2c2nnc(C(F)(F)c3ccc(Cl)c(Cl)c3)o2)C1 (single isomer, unassigned) [I-45 1st] | 0.1 to 1 | > 10 | –
30 | O=C(c1cncs1)N1CC(c2nnc(C(F)(F)c3ccc(Cl)c(Cl)c3)o2)C2(CN(CC3CCCO3)C2)C1 (stereo not shown) [I-182, (8-(5-((3,4-dichlorophenyl)difluoromethyl)-1,3,4-oxadiazol-2-yl)-2-((tetrahydrofuran-2-yl)methyl)-2,6-diazaspiro[3.4]octan-6-yl)(thiazol-5-yl)methanone] | > 10 | > 10 | –
31 | CC1(C)C[C@@H]1C(=O)N1CC2(CN(C(=O)c3cnco3)CC2c2nnc(C(F)(F)c3ccc(Cl)c(Cl)c3)o2)C1 (stereo partly shown) [I-44] | 1 to 10 | > 10 | –
32 | O=C(c1cncs1)N1CC(c2nnc(C(F)(F)c3ccc(Cl)c(Cl)c3)o2)C2(C1)CN(C(=O)[C@H]1CCCN1)C2 (stereo partly drawn) [I-169 1st, 2-(2-(D-prolyl)-6-(thiazole-5-carbonyl)-2,6-diazaspiro[3.4]octan-8-yl)-5-((3,4-dichlorophenyl)difluoromethyl)-1,3,4-oxadiazole] | > 10 | 5 to 10 | –
33 | CC1(C)C[C@@H]1C(=O)N1CC2(CN(C(=O)c3cnn(Cc4ccccc4)c3)CC2c2nnc(Nc3ccc(Br)cc3)o2)C1 (stereo partly drawn) [I-5, (1-benzyl-1H-pyrazol-4-yl)(8-(5-((4-bromophenyl)amino)-1,3,4-oxadiazol-2-yl)-2-((S)-2,2-dimethylcyclopropane-1-carbonyl)-2,6-diazaspiro[3.4]octan-6-yl)methanone] | 1 to 10 | > 10 | –
34 | COC(=O)c1coc(C2CN(C(=O)c3cnn(Cc4ccccc4)c3)CC23CN(C(=O)[C@H]2CC2(C)C)C3)n1 (stereo partly drawn) [I-86, methyl 2-(6-(1-benzyl-1H-pyrazole-4-carbonyl)-2-((S)-2,2-dimethylcyclopropane-1-carbonyl)-2,6-diazaspiro[3.4]octan-8-yl)oxazole-4-carboxylate] | > 10 | > 10 | –
35 | COc1ccccc1C(F)(F)c1nnc(C2CN(C(=O)c3cncs3)CC23CN(C(=O)[C@H]2CC2(C)C)C3)o1 (stereo partly shown) [I-34] | 1 to 10 | > 10 | –
36 | Cc1cc(C)n(C(C)c2nc(C3CN(C(=O)c4cncs4)CC34CN(C(=O)[C@H]3CC3(C)C)C4)no2)n1 (stereo partly drawn) [I-9, (8-(5-(1-(3,5-dimethyl-1H-pyrazol-1-yl)ethyl)-1,2,4-oxadiazol-3-yl)-2-((S)-2,2-dimethylcyclopropane-1-carbonyl)-2,6-diazaspiro[3.4]octan-6-yl)(thiazol-5-yl)methanone] | 1 to 10 | > 10 | –
37 | O=C(c1cncs1)N1CC(c2nnc(C(F)(F)c3ccc(Cl)c(Cl)c3)o2)C2(C1)CN(C1CCOC1)C2 (stereo not shown) [I-154, (8-(5-((3,4-dichlorophenyl)difluoromethyl)-1,3,4-oxadiazol-2-yl)-2-(tetrahydrofuran-3-yl)-2,6-diazaspiro[3.4]octan-6-yl)(thiazol-5-yl)methanone] | > 10 | > 10 | –
38 | C[C@H](NC(=O)c1coc(C2CN(C(=O)c3cnn(Cc4ccccc4)c3)CC23CN(C(=O)[C@H]2CC2(C)C)C3)n1)C1CCCCC1 (stereo partly shown) [I-89] | 0.1 to 1 | 5 to 10 | –
